From the supplement of paper PMC13380429
± gives the standard deviation of the averaged measurements.

Columns and labels:
Settings in all cases: 72 h
Caco-2 [1] = test: cell viability relative to DMSO; higher = less toxic
Calu-3 [2] = test: as above
HepG2 [3] = test: as above
U2OS [4] = test: as above
Vero E6 [5] = test: as above
Caco-2 [6] = test: relative viability EC50 (midpoint between 100% and the lowest measured viability); higher = less toxic
Calu-3 [7] = test: as above
HepG2 [8] = test: as above
U2OS [9] = test: as above
Vero E6 [10] = test: as above
Caco-2 [11] = test: drug sensitivity score (DSS) for viability; higher = more toxic; extreme values may be limits of the assay
Calu-3 [12] = test: as above
HepG2 [13] = test: as above
U2OS [14] = test: as above
Vero E6 [15] = test: as above

Structure (SMILES)	cell viability (Caco-2 [1]; 1 nM) [%]	cell viability (Caco-2 [1]; 10 nM) [%]	cell viability (Caco-2 [1]; 100 nM) [%]	cell viability (Caco-2 [1]; 1000 nM) [%]	cell viability (Caco-2 [1]; 10000 nM) [%]	cell viability (Calu-3 [2]; 1 nM) [%]	cell viability (Calu-3 [2]; 10 nM) [%]	cell viability (Calu-3 [2]; 100 nM) [%]	cell viability (Calu-3 [2]; 1000 nM) [%]	cell viability (Calu-3 [2]; 10000 nM) [%]	cell viability (HepG2 [3]; 1 nM) [%]	cell viability (HepG2 [3]; 10 nM) [%]	cell viability (HepG2 [3]; 100 nM) [%]	cell viability (HepG2 [3]; 1000 nM) [%]	cell viability (HepG2 [3]; 10000 nM) [%]	cell viability (U2OS [4]; 1 nM) [%]	cell viability (U2OS [4]; 10 nM) [%]	cell viability (U2OS [4]; 100 nM) [%]	cell viability (U2OS [4]; 1000 nM) [%]	cell viability (U2OS [4]; 10000 nM) [%]	cell viability (Vero E6 [5]; 1 nM) [%]	cell viability (Vero E6 [5]; 10 nM) [%]	cell viability (Vero E6 [5]; 100 nM) [%]	cell viability (Vero E6 [5]; 1000 nM) [%]	cell viability (Vero E6 [5]; 10000 nM) [%]	relative viability EC50 (Caco-2 [6]) [µM]	relative viability EC50 (Calu-3 [7]) [µM]	relative viability EC50 (HepG2 [8]) [µM]	relative viability EC50 (U2OS [9]) [µM]	relative viability EC50 (Vero E6 [10]) [µM]	drug sensitivity score (Caco-2 [11])	drug sensitivity score (Calu-3 [12])	drug sensitivity score (HepG2 [13])	drug sensitivity score (U2OS [14])	drug sensitivity score (Vero E6 [15])
O=C(O)[C@H](Cc1ccc(Nc2nccc3ccncc23)cc1)NC1=C(Br)C(=O)C12CCCCC2 [CT-7758]	97.5	100	88.9	105	102	108	105	95.3	89.6	104	99.3	95.4	105	101	101	101	104	96.6	98.6	96.5	97.6	104	93.3	98.2	93.4	> 10	> 10	> 10	> 10	> 10	0	0	0	0	0
CC(=O)OCC(=O)[C@@]1(O)CC[C@H]2[C@@H]3CCC4=CC(=O)CC[C@]4(C)[C@@]3(F)[C@@H](O)C[C@@]21C [FLUDROCORTISONE ACETATE]	102	102	99.5	92.8	101	97.7	94.4	93	85.1	104	104	95.9	104	87.5	95.3	98.1	101	95.8	94.7	93.1	97.7	99.8	96.5	96.5	97.7	> 10	> 10	> 10	> 10	> 10	0	0	0.6	0	0
COc1ccc(COc2ccc(Cc3cnc(N)nc3N)cc2OC)cc1 [GW-2580]	98.2	97.6	95.7	102	91.2	110	102	97.2	102	99.7	113	108	108	99.5	108	99.2	99.3	94.3	103	92.2	95.3	97.9	100	98.3	96	> 10	> 10	> 10	> 10	> 10	0	0	0	0	0
N[C@H]1CCN(O)C1=O [HA-966-(S)-(-)]	103 ± 1.2	86.4 ± 7.8	106 ± 5.9	96 ± 3.5	102 ± 5.2	104 ± 4.8	95.8 ± 4.6	99.6 ± 2.1	94.7 ± 7.3	97.6 ± 0.71	93.2	107	100	104	106	97.6 ± 2.7	96.8 ± 2	98.5 ± 3.2	96.9 ± 0.71	97.2 ± 3.2	96.8 ± 9.3	95.3	93.35 ± 0.35	97.6 ± 3.4	102 ± 4.7	> 10	> 10	> 10	> 10	> 10	0	0	0	0	0
NCCCCCNCC12CC3CC(CC(C3)C1)C2 [IEM1754]	104	97.4	101	104	102	108	106	91	97.8	82.1	106	89.3	98.1	97.8	97.9	98.6	106	100	100	99	98.6	98.6	94.7	97.3	102	> 10	> 10	> 10	> 10	> 10	0	0.7	0	0	0
CC1(C)CN2C(CS/C(=N\C3CCCCC3)NC3CCCCC3)=CSC2=N1 [IT1t]	91.6	87.6	99.5	94.8	82	96.4	116	100	89.7	75.4	96.7	102	96.7	102	88.8	97.1	95.8	102	97.5	88.8	94.5	95.7	92.1	99.4	96.9	> 10	> 10	> 10	> 10	> 10	0	2.2	0	0.1	0
